Measured values as given in patent US9399635B2, “Pyrazole derivative” (GREEN TECH CO., LTD., priority 2011, dated 2016).

Experiments:
Aβ 1-42 = target: T1, Aβ 1-42 (Homo sapiens, UniProt P05067); assay: Determination of Aβ aggregation inhibitory activity (thioflavin T fluorescence); format: biochemical; conditions: for IC50: Aβ 1-42, 37° C. for 24 hours, thioflavin T, read-out: IC50 (μM) Test example 3 (Aβ aggregation inhibitory activity)
T1 construct: Aβ 1-42 (Peptide Institute, Inc.) was dissolved in 0.3% ammonia water; purchased Peptide Institute, Inc
T1 sequence (P05067 672-713): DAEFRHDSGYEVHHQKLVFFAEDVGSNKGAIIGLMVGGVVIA
Procedure: Pharmacological test example 3: Determination of Aβ aggregation inhibitory activity
Aβ 1-42 (Peptide Institute, Inc.) was dissolved in 0.3% ammonia water so that the concentration would be 0.5 mM and then diluted with PBS to 20 μM. The test compounds were prepared using DMSO at 100-fold of their final concentrations and adjusted so that the DMSO concentration would be 2%. The Aβ solution and each of the test compound solutions were mixed at an equivalent ratio and the mixtures were incubated at 37° C. for 24 hours. To each of the mixtures, an equal volume of a thioflavin T solution adjusted with a 100 mM Tris-glycine buffer (pH 8.5) to 6 μM was added. The fluorescence intensity was measured with a fluorescence plate reader (excitation wavelength: 440 nm; emission wavelength: 480 nm).
(§1) The final concentration of each compound at the time of measurement was set at 0.1, 0.3, 1, 3, and 10 μM. The sample to which only DMSO was added was used as a negative control and its fluorescence intensity was taken as 0% inhibitory activity.

[1] = target: T2, recombinant human β-secretase (Homo sapiens, UniProt P56817); assay: Determination of β-secretase inhibitory activity (BACE-1 FRET assay Kit); format: biochemical; conditions: for IC50: recombinant human β-secretase, fluorescent substrate peptide, 1 hour, read-out: IC50 (μM) Test example 2 (β-secretase inhibitory activity); for inhibition at 1 µM: compound at 1 μM
T2 construct: purchased Invitrogen
T2 sequence (P56817 46-501): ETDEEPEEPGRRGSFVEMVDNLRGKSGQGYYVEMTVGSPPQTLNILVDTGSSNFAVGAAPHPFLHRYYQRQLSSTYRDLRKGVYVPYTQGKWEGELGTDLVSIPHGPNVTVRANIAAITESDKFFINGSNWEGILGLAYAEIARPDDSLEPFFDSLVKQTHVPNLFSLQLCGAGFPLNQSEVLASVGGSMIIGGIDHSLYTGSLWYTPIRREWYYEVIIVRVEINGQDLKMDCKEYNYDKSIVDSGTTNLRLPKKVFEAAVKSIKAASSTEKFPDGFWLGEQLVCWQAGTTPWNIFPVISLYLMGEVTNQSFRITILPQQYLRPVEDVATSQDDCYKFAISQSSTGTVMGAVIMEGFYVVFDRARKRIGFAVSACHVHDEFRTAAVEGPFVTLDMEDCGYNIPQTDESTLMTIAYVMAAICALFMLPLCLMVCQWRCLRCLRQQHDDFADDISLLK
Procedure: Pharmacological Test Example 2: Determination of β-Secretase Inhibitory Activity
The β-secretase inhibitory activity was measured with BACE-1 FRET assay Kit (Invitrogen). The test compounds were prepared using DMSO at 30-fold of their final concentrations and dissolved so that the DMSO concentration would be 10%. To each of the solutions, an equal volume of a recombinant human β-secretase (1 U/mL) dissolved in the assay buffer and an equal volume of fluorescent substrate peptide (2.5 nM) were added and the solutions were left to stand for 1 hour. The fluorescence intensity was measured with a fluorescence plate reader (excitation wavelength: 545 nm; emission wavelength: 590 nm).
The final concentration of each compound at the time of measurement was set at 0.1, 0.3, 1, 3, and 10 μM, at 0.3, 1, 3, 10, and 30 μM, or at 1, 3, 10, 30, and 100 μM.

[2] = target: recombinant three-repeat microtubule-binding domain (3R-MBD) of tau protein (Homo sapiens, UniProt P10636); assay: Determination of tau aggregation inhibitory activity (heparin-induced, thioflavin T fluorescence; electron microscope); format: biochemical; conditions: for IC50: 3R-MBD tau 10 μM, heparin 10 μM, 37° C. for 16 hours, thioflavin T, read-out: IC50 (μM) Test example 1 (tau aggregation inhibitory activity); for tau aggregation inhibitory activity at 1 μM: compound at 1 μM
recombinant three-repeat microtubule-binding domain (3R-MBD) of tau protein, sequence (P10636 186-279 isoform P10636-2 limits assumed): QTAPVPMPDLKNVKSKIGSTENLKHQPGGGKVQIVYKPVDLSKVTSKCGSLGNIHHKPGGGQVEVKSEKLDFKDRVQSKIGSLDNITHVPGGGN
Procedure: Pharmacological Test Example 1: Determination of Tau Aggregation Inhibitory Activity
A recombinant three-repeat microtubule-binding domain (3R-MBD) of tau protein was expressed in E. coli and was purified and used for the experiment. The purified tau solution was diluted with a 50 mM Tris-HCl buffer (pH 7.6) to a final concentration of 10 μM. The test compounds were prepared using dimethylsulfoxide (DMSO) at 20-fold of their final concentrations and added to the plate so that the DMSO concentration would be 5%. Heparin was added to the plate so that the final concentration would be 10 μM and the plate was left to stand at 37° C. for 16 hours. Thioflavin T was added to the plate so that the concentration would be 10 μM and the fluorescence intensity was measured with a fluorescence plate reader (PerkinElmer, Inc.) (excitation wavelength: 440 nm; emission wavelength: 480 nm).
as §1
The samples were placed on a grid and washed with distilled water. A 1 mM phosphotungstic acid aqueous solution was added to the samples. The samples were washed, dried overnight, and observed.

melting point [°C] | IC50 (Aβ 1-42) [µM] | IC50 [1] [µM] | IC50 [2] [µM] | inhibition at 3 µM (Aβ 1-42; compound at 3 μM) [%] | inhibition at 1 µM [1] [%] | tau aggregation inhibitory activity at 1 μM [2] [%] | SMILES
123 to 126 | 5.05 | 2.89 | 1.46 | – | – | – | COc1cc(OCc2ccccn2)ccc1/C=C/c1cc(/C=C/c2ccc(O)c(N)c2)[nH]n1 [Example 111, 3-[(1E)-2-[2-methoxy-4-(2-pyridylmethoxy)phenyl]ethenyl]-5-[(1E)-2-(3-amino-4-hydroxy-phenyl)ethenyl]-1H-pyrazole]
113 to 122 | 7.53 | 1.04 | 1.28 | – | – | – | COc1cc(OCCN2CCOCC2)ccc1/C=C/c1cc(/C=C/c2ccc3cc[nH]c3c2)[nH]n1 [Example 27, 3-[(1E)-2-(1H-indol-6-yl)ethenyl]-5-[(1E)-2-[2-methoxy-4-(2-morpholinoethoxy)phenyl]ethenyl]-1H-pyrazole]
289 to 291 | 2.8 | – | – | 17 | 30 | 24 | C(=C\c1cc(/C=C/c2ccc3cc[nH]c3c2)[nH]n1)/c1ccc2cc[nH]c2c1 [Example 112, 3,5-bis[(1E)-2-(1H-indol-6-yl)ethenyl]-1H-pyrazole]
153 to 155 | > 10 | 22.7 | 0.85 | – | – | – | COc1cc(OCc2ccccn2)ccc1/C=C/c1cc(/C=C/c2ccc3c(c2)OCCO3)[nH]n1 [Example 83, 3-[(1E)-2-(1,4-benzodioxan-6-yl)ethenyl]-5-[(1E)-2-[2-methoxy-4-(2-pyridylmethoxy)phenyl]ethenyl]-1H-pyrazole]
78.1 to 80 | 0.4 | – | – | – | – | – | CCN(CC)c1ccc(/C=C/c2cc(/C=C/c3ccc4cc[nH]c4c3)[nH]n2)c(OCc2ccccc2)c1 [Example 37, 3-[(1E)-2-(2-benzyloxy-4-diethylaminophenyl)ethenyl]-5-[(1E)-2-(1H-indol-6-yl)ethenyl]-1H-pyrazole]
229 to 237 | 4.43 | 3.99 | 1.04 | – | – | – | COc1cc(OCc2nccs2)ccc1/C=C/c1cc(/C=C/c2ccc3cc[nH]c3c2)[nH]n1 [Example 82, 3-[(1E)-2-(1H-indol-6-yl)ethenyl]-5-[(1E)-2-[2-methoxy-4-(1,3-thiazol-2-ylmethoxy)phenyl]ethenyl]-1H-pyrazole]
218 to 220 | 3 | 2.85 | 1.49 | – | – | – | COc1cc(OCC2CCCO2)ccc1/C=C/c1cc(/C=C/c2ccc3cc[nH]c3c2)[nH]n1 (stereo not drawn) [Example 1, 3-[(1E)-2-(1H-indol-6-yl)ethenyl]-5-[(1E)-2-[2-methoxy-4-(2-tetrahydrofuranylmethoxy)phenyl]ethenyl]-1H-pyrazole]
218 to 220 | > 10 | 13.7 | 1.26 | – | – | – | COc1cc(OCc2ccccn2)ccc1/C=C/c1cc(/C=C/c2ccc3c(c2)OCO3)[nH]n1 [Example 77, 3-[(1E)-2-(1,3-benzodioxol-5-yl)ethenyl]-5-[(1E)-2-[2-methoxy-4-(2-pyridylmethoxy)phenyl]ethenyl]-1H-pyrazole]
150.8 to 151.6 | 2.9 | – | – | – | – | – | COc1cc(OCc2ccccn2)ccc1/C=C/c1cc(/C=C/c2cc3ccccc3[nH]2)[nH]n1 [Example 36, 3-[(1E)-2-(1H-indol-2-yl)ethenyl]-5-[(1E)-2-[2-methoxy-4-(2-pyridylmethoxy)phenyl]ethenyl]-1H-pyrazole]
135 to 142 | 6.88 | 0.69 | 1.57 | – | – | – | COc1cc(OCc2ccccn2)ccc1/C=C/c1cc(/C=C/c2ccc3[nH]cnc3c2)[nH]n1 [Example 31, 3-[(1E)-2-(1H-benzimidazol-5-yl)ethenyl]-5-[(1E)-2-[2-methoxy-4-(2-pyridylmethoxy)phenyl]ethenyl]-1H-pyrazole]
96 to 99 | 3.27 | 1.25 | 1.29 | – | – | – | CCN(CC)c1ccc(/C=C/c2cc(/C=C/c3ccc4cc[nH]c4c3)[nH]n2)c(OCCN2CCOCC2)c1 [Example 98, 3-[(1E)-2-[4-diethylamino-2-(2-morpholinoethoxy)phenyl]ethenyl]-5-[(1E)-2-(1H-indol-6-yl)ethenyl]-1H-pyrazole]
143 to 146 | – | – | – | – | 12 | 0 | COc1cc(OCc2ccccn2)ccc1/C=C/c1cc(/C=C/c2ccccc2)[nH]n1 [Example 109, 3-[(1E)-2-[2-methoxy-4-(2-pyridylmethoxy)phenyl]ethenyl]-5-[(1E)-2-phenylethenyl]-1H-pyrazole]
104 to 109 | 2.17 | 1.11 | 3.84 | – | – | – | COc1ccc([N+](=O)[O-])c(/C=C/c2cc(/C=C/c3ccc4cc[nH]c4c3)[nH]n2)c1 [Example 58, 3-[(1E)-2-(1H-indol-6-yl)ethenyl]-5-[(1E)-2-(5-methoxy-2-nitrophenyl)ethenyl]-1H-pyrazole]
202.5 to 203.5 | 1.6 | 2.9 | – | – | – | – | Oc1cc(OCc2ccccn2)ccc1/C=C/c1cc(/C=C/c2ccc3cc[nH]c3c2)[nH]n1 [Example 3, 3-[(1E)-2-(1H-indol-6-yl)ethenyl]-5-[(1E)-2-[2-hydroxy-4-(2-pyridylmethoxy)phenyl]ethenyl]-1H-pyrazole]
172 to 174 | 0.91 | – | – | – | – | – | COc1cc(OCc2ccccn2)ccc1/C=C/c1cc(/C=C/c2ccc3ccn(C)c3c2)[nH]n1 [Example 35, 3-[(1E)-2-[2-methoxy-4-(2-pyridylmethoxy)phenyl]ethenyl]-5-[(1E)-2-(1-methyl-1H-indol-6-yl)ethenyl]-1H-pyrazole]
107 to 120 | – | – | – | – | – | – | COc1cc(OCc2ccccn2)ccc1/C=C/c1cc(/C=C/c2cccc3ncccc23)[nH]n1 [Example 69, 3-[(1E)-2-(quinolin-5-yl)ethenyl]-5-[(1E)-2-[2-methoxy-4-(2-pyridylmethoxy)phenyl]ethenyl]-1H-pyrazole]
189 to 191 | – | – | – | – | – | – | C(=C\c1cc(/C=C/c2ccc3cc[nH]c3c2)[nH]n1)/c1ccc(N2CCCCC2)cc1 [Example 107, 5-[(1E)-2-(1H-indol-6-yl)ethenyl]-3-[(1E)-2-[4-(1-piperidinyl)phenyl]ethenyl]-1H-pyrazole]
196 to 199 | – | – | – | – | – | – | C(=C\c1cc(/C=C/c2c[nH]c3ccccc23)[nH]n1)/c1ccc(OCc2ccccn2)cc1 [Example 10, 3-[(1E)-2-(1H-indol-3-yl)ethenyl]-5-[(1E)-2-[4-(2-pyridylmethoxy)phenyl]ethenyl]-1H-pyrazole]
209 to 213 | – | – | – | – | – | – | COc1cc(OCc2ccccn2)ccc1/C=C/c1cc(/C=C/c2c[nH]c3ccc(F)cc23)[nH]n1 [Example 99, 3-[(1E)-2-(5-fluoro-1H-indol-3-yl)ethenyl]-5-[(1E)-2-[2-methoxy-4-(2-pyridylmethoxy)phenyl]ethenyl]-1H-pyrazole]
96 to 101 | – | – | – | – | – | – | COc1cc(/C=C/c2cc(/C=C/c3ccc4[nH]ccc4c3)[nH]n2)ccc1OCc1ccccn1 [Example 5, 3-[(1E)-2-(1H-indol-5-yl)ethenyl]-5-[(1E)-2-[3-methoxy-4-(2-pyridylmethoxy)phenyl]ethenyl]-1H-pyrazole]
127 to 135 | – | – | – | – | – | – | COc1cc(OCc2cccnc2)ccc1/C=C/c1cc(/C=C/c2ccc3[nH]ccc3c2)[nH]n1 [Example 44, 3-[(1E)-2-(1H-indol-5-yl)ethenyl]-5-[(1E)-2-[2-methoxy-4-(3-pyridylmethoxy)phenyl]ethenyl]-1H-pyrazole]
114 to 119 | – | – | – | – | – | – | COc1cc(OC(c2ccccc2)c2ccccc2)ccc1/C=C/c1cc(/C=C/c2ccc3cc[nH]c3c2)[nH]n1 [Example 64, 3-[(1E)-2-[4-(diphenylmethoxy)-2-methoxyphenyl]ethenyl]-5-[(1E)-2-(1H-indol-6-yl)ethenyl]-1H-pyrazole]
